Results on two molecules are retold here after US8153397B2 (priority 1993, dated 2012).

“Also recorded” adds a separate entry of the source.

The test addresses BoNT/A LC (Clostridium botulinum, UniProt P0DPI0). The format is biochemical.

Sequence of BoNT/A LC (P0DPI0 3-448, added parts left off): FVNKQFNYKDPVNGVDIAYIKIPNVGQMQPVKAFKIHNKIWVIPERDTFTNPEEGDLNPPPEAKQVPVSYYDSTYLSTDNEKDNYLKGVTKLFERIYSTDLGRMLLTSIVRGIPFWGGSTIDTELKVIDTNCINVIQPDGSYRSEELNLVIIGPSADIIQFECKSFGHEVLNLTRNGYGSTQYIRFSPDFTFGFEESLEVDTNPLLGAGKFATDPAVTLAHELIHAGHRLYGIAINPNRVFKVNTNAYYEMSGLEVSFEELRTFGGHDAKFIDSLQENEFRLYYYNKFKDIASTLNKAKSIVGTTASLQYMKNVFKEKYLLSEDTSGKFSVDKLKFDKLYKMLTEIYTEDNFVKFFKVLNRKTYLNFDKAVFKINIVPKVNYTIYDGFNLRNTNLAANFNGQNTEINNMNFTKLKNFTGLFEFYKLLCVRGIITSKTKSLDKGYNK

On to `c1ccc(CN(CCN(Cc2ccccn2)Cc2ccccn2)Cc2ccccn2)nc1` [TPEN], for which the “effect on truncation and fragmentation of the LC” value is “largely protected; also recorded: significantly reduced the rate of conversion of IA to IB”.
Turning to `O=C(O)CN(CCN(CC(=O)O)CC(=O)O)CC(=O)O` [EDTA], the “effect on truncation and fragmentation of the LC” value is given as “failed to protect; also recorded: little effect on proteolysis”.
